The values below come from US11440932B2, “Surfactant compounds-clips for extraction and stabilization in solution of membrane proteins” (CENTRE NATIONAL DE LA RECHERCHE SCIENTIFIQUE, priority 2017, dated 2022).

The test deals with T1, BmrA (Bacillus subtilis, UniProt O06967).
T1 construct: His tag; made in house; host or cells: E. coli C41(DE3)
T1 sequence (O06967 whole entry): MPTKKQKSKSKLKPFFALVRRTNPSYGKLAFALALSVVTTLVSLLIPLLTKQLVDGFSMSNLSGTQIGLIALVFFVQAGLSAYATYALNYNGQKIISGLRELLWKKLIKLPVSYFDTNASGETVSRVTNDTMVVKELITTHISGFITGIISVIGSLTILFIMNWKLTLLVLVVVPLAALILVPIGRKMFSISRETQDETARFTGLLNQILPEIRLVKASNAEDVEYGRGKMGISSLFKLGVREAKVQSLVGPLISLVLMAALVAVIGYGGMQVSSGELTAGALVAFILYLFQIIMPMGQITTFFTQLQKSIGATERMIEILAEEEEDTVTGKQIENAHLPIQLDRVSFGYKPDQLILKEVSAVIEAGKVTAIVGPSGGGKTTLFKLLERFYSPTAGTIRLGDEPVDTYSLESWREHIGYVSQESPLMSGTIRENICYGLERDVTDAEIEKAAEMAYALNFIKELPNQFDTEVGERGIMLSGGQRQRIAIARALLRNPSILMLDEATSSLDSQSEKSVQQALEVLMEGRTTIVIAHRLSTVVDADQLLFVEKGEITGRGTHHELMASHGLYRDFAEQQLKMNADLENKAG
As to the kind of experiment: Extraction of BmrA from membranes (SDS-PAGE of supernatant). To be noted: detergent 10 g/l unless indicated otherwise; 2 h at 4° C. Also on record: species or system bacterial; overexpressed in E. coli C41DE3. The essentials: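 E. coli C41(DE3) membranes overexpressing BmrA (~25% of protein) or AcrB (~20%), at 2 g/l protein in 20 mM Tris-HCl pH 8.0, 100 mM NaCl, 15% glycerol with protease inhibitors, treated with detergent at 10 g/l unless stated otherwise for 2 h at 4° C. After 100 000×g centrifugation, 20 μg supernatant protein run on 10% SDS-PAGE, Coomassie-stained.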
Consider `CCCCCCCCCCCC(=O)N[C@@H](COCc1cn(CCO[C@@H]2OC(CO)[C@@H](O)C(O)C2O)nn1)C(=O)N[C@H](CCC(=O)O)C(=O)O` (stereo partly drawn) [Compound 3.7b], for which the “extraction of BmrA” value was “non-extracting”.
Next, `CCCCCCCCCCCCCC(=O)N[C@@H](COCc1cn(CCO[C@@H]2OC(CO)[C@@H](O)C(O)C2O)nn1)C(=O)N[C@H](CCC(=O)O)C(=O)O` (stereo partly drawn) [Compound 3.7c]: “extracting”.
In the case of `CCCCCCCCCCCCCC(=O)N[C@@H](COCc1cn(CCO[C@@H]2OC(CO)[C@@H](O[C@H]3OC(CO)[C@@H](O)C(O)C3O)C(O)C2O)nn1)C(=O)N[C@H](CCC(=O)O)C(=O)O` (stereo partly drawn) [Compound 3.7e], the “extraction of BmrA” value is recorded as “non-extracting”.
Consider `CCCCCCCCCCCCCC(=O)N[C@@H](COCc1cn(CCOCCOCCOCCOCCOCCOC)nn1)C(=O)N[C@H](CCC(=O)O)C(=O)O` [Compound 3.7g], for which the “extraction of BmrA” value is “extracting”.
For the compound `CCCCCCCCCCCCC(CCCCCCCCCCCC)C(=O)N[C@@H](COCc1cn(CCO[C@@H]2OC(CO)[C@@H](O)C(O)C2O)nn1)C(=O)N[C@H](CCC(=O)O)C(=O)O` (stereo partly drawn) [Compound 3.7j], the “extraction of BmrA” value is listed as “partially extracting”.
Next, `CCCCCCCCCCCCCC(=O)N[C@@H](COCc1cn(CCO[C@@H]2OC(CO)[C@@H](O)C(O)C2O)nn1)C(=O)N[C@@H](CCC(=O)O)C(=O)NCC(=O)O` (stereo partly drawn) [Compound 3.7l]: “extracting”.
